In patent US20190241535A1, “3-SUBSTITUTED CARBONYL-NAPHTHO[2,3-B]FURANE DERIVATIVE OR PHARMACEUTICALLY ACCEPTABLE SALT THEREOF” (Boston Biomedical, Inc., priority 2014, published 2019) one finds concentration data, which are given here for 1 molecule.

Like-named read-outs stand apart in the source and are kept apart here.

The nature of this data set: Test 5: concentration of the test compounds in tumor. Format: in vivo. The conditions noted are these: mouse, po, 25 mg/kg, 25 mg/kg po. As for the experimental part: Administration method: The test compound scaled to a given weight was suspended in 0.5% methylcellulose to prepare an administration solution. A mouse was weighed, and the administration solution was orally administered to the mouse depending on its weight.
The picked tumor was put into a tube, and 1 mL of MeOH containing an internal standard was added to the tube. The internal standard used herein was bezafibrate, the concentration of which was 200 nM. The mixture was homogenized with an electric homogenizer to prepare a tumor extract. And, a blank tumor extract was prepared with a tumor derived from an un-treated animal in the same manner. The 100 μg/mL standard solution was diluted with MeOH to prepare a sample for calibration curve which has the desired concentration. To 50 μL of the sample for calibration curve was added 50 μL of the blank tumor extract to prepare a sample for tumor calibration curve. To 50 μL of the tumor extract was added 50 μL of MeOH to prepare a sample for analyzing tumor. Each 5 μL of the samples was analyzed with an LC-MS. The calibration curve was prepared based on the peak ratio of MS peak area of the test sample per that of the internal standard, and the concentration of the sample for tumor calibration curve. The concentration/weight of the test compound in each sample was calculated based on the peak ratio of each sample, and the calibration curve. Then, the obtained weight was divided by the weight in tumor to calculate the concentration of the test compound in tumor.

Where [1] appears, read: animal 1, read-out: Concentration in tumor, animal 1.
Where [2] appears, read: animal 2, read-out: Concentration in tumor, animal 2.

For `CN1CCN(C(=O)c2c(C(F)(F)F)oc3c2C(=O)c2ccccc2C3=O)CC1` [Example 8, 3-(4-Methylpiperazine-1-carbonyl)-2-(trifluoromethyl)naphtho[2,3-b]furan-4,9-dione], the concentration at 2 hr by setting is: under setting [1], 498 ng/mL; under setting [2], 260 ng/mL; (animal 3, read-out: Concentration in tumor, animal 3) 47 ng/mL; (mean of 3, read-out: Concentration in tumor, mean) 268 ng/mL. In addition, the concentration at 6 hr under setting [1] amounted to 329 ng/mL and the concentration at 6 hr under setting [2] is 157 ng/mL.
